# According to patent publication US20150010473A1, “DIAGNOSIS AND TREATMENT OF TUMORS” (MORPHOTEK, INC., priority 2006, published 2015):
# How the values were obtained:
# [1] = tested on: primitive neuroectodermal tumors; test: Histochemical staining of biopsy sections with biotinylated chlorotoxin, summary; format: binding, human; conditions: of 53 patients tested
# Text: Most of the samples of human tissue, from both sexes, of different ages and races were obtained through the Cooperative Human Tissue Network, Tissue Procurement at UAB, UAB hospitals and the Human Brain Tissue Bank in London, Canada. Snap frozen tissue and fresh tissue embedded in a freezing gel were sliced at 8 microns and picked up onto positively charged glass slides. The sections were then fixed in 4% paraformaldehyde or milloniqs according to the staining protocol. Paraffin blocks were sectioned and prepared according to standard procedures.
# Biopsy sections were blocked for 1 hour in 10% normal goat serum in PBS and treated with a dilution of biotinylated chlorotoxin overnight at 4° C. […]
# Finally, a third adjacent section was stained with both hematoxylin, a cell nuclei specific stain, and eosin, a cytoplasmic stain. Therefore, for each tissue analyzed, three adjacent sections were stained. […] In the photomicrographs, adjacent sections are identified as follows: TM-601: biotinylated chlorotoxin detected by a brown reaction product of DAB with the biotin and further counterstained with methyl. green; Control: the control section stained with only methyl green; and, H&E: the hematoxylin and eosin stained section. […]
# glioma cells [2] = conditions: Ullrich and Sontheimer 1997; cited from earlier work
# glioma cells [3] = conditions: Transwell assays; Soroceanu et al.; cited from earlier work
# membrane of glioma cells = conditions: Soroceanu et al. 1998; cited from earlier work
substance,measurement,setting,value
chlorotoxin,patients whose tumor material showed chlorotoxin specificity,[1],50
same,effect on glioma cell proliferation,glioma cells [2],enhances glioma cell proliferation
same,effect on glioma cell migration,glioma cells [3],inhibits the ability of glioma cells to migrate
same,binding to glioma cells,membrane of glioma cells,selectively binds to the membrane of glioma cells
